Drawing on ChEMBL document CHEMBL1139734, “Exploration of the diketoacid integrase inhibitor chemotype leading to the discovery of the anilide-ketoacids chemotype” (Bioorg Med Chem Lett, 2006), this text covers IC50 for eleven compounds.

The nature of the experiment: Inhibition of HIV integrase-mediated strand transfer activity. More on the design: species or system Human immunodeficiency virus.
Regarding `O=C(/C=C(\O)C(=O)O)Nc1cccc(Cl)c1`, the IC50 was 0.7 µM.
For `O=C(O)/C(O)=C/c1nc2ccc(Cl)cc2o1` the value was greater than 100 µM.
As for `CN(C(=O)/C=C(\O)C(=O)O)c1cccc(Cl)c1`, the figure is greater than 125 µM; as for `O=C(/C=C(\O)C(=O)O)Nc1ccc(F)cc1`, 13.4 µM.
With `O=C(/C=C(\O)C(=O)O)Nc1ccc(Cl)c(Cl)c1`, the IC50 was 0.16 µM.
As for `O=C(/C=C(\O)C(=O)O)Cc1ccccc1`, the figure is greater than 200 µM; as for `O=C(/C=C(\O)C(=O)O)Nc1ccc(Cl)cc1`, 5.6 µM.
As for `O=C(/C=C(\O)C(=O)O)Nc1ccc(F)c(F)c1`, the figure is 2.4 µM; as for `O=C(O)/C(O)=C/C(=O)N1CCc2ccccc21`, 0.2 µM.
For `O=C(O)/C(O)=C/C(=O)N1CCc2cc(Cl)c(Cl)cc21` the value was 0.02 µM; for `O=C(O)/C(O)=C/C(=O)N1CCc2cc(F)ccc21`, 0.23 µM.
